Several values for one entry are separate records, joined by “and”; a condition that tells them apart may be missing. Identical values can stand only once. Records with an inconclusive call do not appear.
Test system: HT29 intrarenal xenograft, nude mice, tumor weight change
Assay: NCI In Vivo Anticancer Drug Screen. Data for tumor model HT29;CX-1 Human Adenocarcinoma (MER+) (intrarenal inoculation) in NU/NU BALB/C (nude) mice
Conditions: endpoint: mean tumor weight change, higher = larger tumour
Protocol: The antitumor activity of compounds was measured in mice bearing transplantable tumors. Survival or tumor size were measured and the results are expressed as the measurement made in the treated group (T) divided by the measurement made in the vehicle treated control group (C). The tumor model used in this assay is HT29;CX-1 Human Adenocarcinoma (MER+) (intrarenal inoculation) in NU/NU BALB/C (nude) mice

[1] = dose: 200.0 mg/kg/injection, schedule: Q04DX004 (sc), vehicle: saline with Tween-80
[2] = dose: 400.0 mg/kg/injection, schedule: Q04DX004 (sc), vehicle: saline with Tween-80
[3] = dose: 600.0 mg/kg/injection, schedule: Q04DX004 (sc), vehicle: saline with Tween-80
[4] = dose: 2400.0 mg/kg/injection, schedule: Q04DX004 (sc), vehicle: saline with Tween-80
[5] = dose: 25.0 mg/kg/injection, schedule: Q04DX004 (sc), vehicle: Klucel (hydroxypropylcellulose) (HPC)
[6] = dose: 50.0 mg/kg/injection, schedule: Q04DX004 (sc), vehicle: Klucel (hydroxypropylcellulose) (HPC)

CCCCC1CCCCCCc2[nH]c(/C=C3\N=C(c4ccc[nH]4)C=C3OC)cc21 (stereo not drawn)
T/C (dose: 2.0 mg/kg/injection, schedule: Q04DX004 (sc), vehicle: saline with Tween-80): 100 % of control
T/C (dose: 4.0 mg/kg/injection, schedule: Q04DX004 (sc), vehicle: saline with Tween-80): 192 % of control
T/C (dose: 8.0 mg/kg/injection, schedule: Q04DX004 (sc), vehicle: saline with Tween-80): 92 % of control

CNC1C(O)C(OC2C(N)CC(N)C(OC3OC(C(C)O)C(O)C(O)C3N)C2O)OCC1(C)O (stereo not drawn)
T/C (dose: 50.0 mg/kg/injection, schedule: Q04DX004 (ip), vehicle: saline): 102 % of control

O=C1c2ccccc2C(=O)c2c(NCCNCCO)ccc(O)c21
T/C (dose: 12.5 mg/kg/injection, schedule: Q04DX004 (sc), vehicle: saline): 104 % of control
T/C (dose: 25.0 mg/kg/injection, schedule: Q04DX004 (sc), vehicle: saline): 105 % of control
T/C (dose: 100.0 mg/kg/injection, schedule: Q04DX004 (sc), vehicle: saline): 74 % of control

NCCCNCCSP(=O)(O)O
T/C (dose: 200.0 mg/kg/injection, schedule: Q04DX004 (sc), vehicle: saline): 102 % of control

BrCCC1(CCBr)CCCCC1
T/C (dose: 300.0 mg/kg/injection, schedule: Q04DX004 (sc), vehicle: water): 97 % of control
T/C (dose: 600.0 mg/kg/injection, schedule: Q04DX004 (sc), vehicle: water): 77 % of control
T/C (dose: 1200.0 mg/kg/injection, schedule: Q04DX004 (sc), vehicle: water): 58 % of control
T/C (dose: 2400.0 mg/kg/injection, schedule: Q04DX004 (sc), vehicle: water): 76 % of control

Nc1nc2ccc(NCc3ccc(C(=O)NC(CCC(=O)O)C(=O)O)cc3)cc2c(=O)[nH]1 (stereo not drawn)
T/C [1]: 92 % of control
T/C [2]: 105 % of control

c1ccc2c(NCCCCCCNc3c4ccccc4nc4ccccc34)c3ccccc3nc2c1
T/C (dose: 5.0 mg/kg/injection, schedule: Q01DX010 (sc), vehicle: Klucel (hydroxypropylcellulose) (HPC)): 154 % of control
T/C (dose: 10.0 mg/kg/injection, schedule: Q01DX010 (sc), vehicle: Klucel (hydroxypropylcellulose) (HPC)): 88 % of control

CN(C)/N=N/c1nc[nH]c1C(N)=O
T/C (dose: 100.0 mg/kg/injection, schedule: Q04DX004 (ip), vehicle: saline): 157 % of control
T/C (dose: 150.0 mg/kg/injection, schedule: Q04DX004 (ip), vehicle: saline): 75 % of control

Cc1cc2cc3cc(C)c(N)cc3nc2cc1N
T/C [3]: 115 % of control
T/C [4]: 77 % of control

O=NN(CCCl)C(=O)NC1OC(CO)C(O)C(O)C1O (stereo not drawn)
T/C (dose: 5.0 mg/kg/injection, schedule: Q04DX004 (sc), vehicle: saline): 75 % of control
T/C (dose: 10.0 mg/kg/injection, schedule: Q04DX004 (sc), vehicle: saline): 76 % of control
T/C (dose: 20.0 mg/kg/injection, schedule: Q04DX004 (sc), vehicle: saline): 57 % of control

NC1(C(=O)O)CCCC1
T/C (dose: 50.0 mg/kg/injection, schedule: Q01DX010 (sc), vehicle: saline): 37 % of control and 40 % of control
T/C (dose: 100.0 mg/kg/injection, schedule: Q01DX010 (sc), vehicle: saline): 12 % of control and 22 % of control

Oc1c(Cl)cc(Cl)cc1C=NCCSc1ccc(Cl)cc1
T/C (dose: 600.0 mg/kg/injection, schedule: Q04DX004 (ip), vehicle: Klucel (hydroxypropylcellulose) (HPC)): 105 % of control and 88 % of control
T/C (dose: 1200.0 mg/kg/injection, schedule: Q04DX004 (ip), vehicle: Klucel (hydroxypropylcellulose) (HPC)): 80 % of control

Oc1cccc2ccccc12
T/C (dose: 150.0 mg/kg/injection, schedule: Q04DX004 (ip), vehicle: water): 63 % of control

CN(C)N=Nc1cccc(C(N)=O)c1
T/C [5]: 91 % of control
T/C [6]: 85 % of control
T/C (dose: 100.0 mg/kg/injection, schedule: Q04DX004 (sc), vehicle: Klucel (hydroxypropylcellulose) (HPC)): 123 % of control

COc1ccc2c(ccc3oc([N+](=O)[O-])cc32)c1
T/C (dose: 150.0 mg/kg/injection, schedule: Q04DX004 (sc), vehicle: Klucel (hydroxypropylcellulose) (HPC)): 113 % of control
T/C (dose: 600.0 mg/kg/injection, schedule: Q04DX004 (sc), vehicle: Klucel (hydroxypropylcellulose) (HPC)): 76 % of control

COC1/C=C/C=C(/C)Cc2cc(O)c(Cl)c(c2)N(C)C(=O)CC(OC(=O)C(C)C)C2(C)OC2C(C)C2CC1(O)NC(=O)O2 (stereo not drawn)
T/C (dose: 2.0 mg/kg/injection, schedule: Q04DX004 (sc), vehicle: saline + alcohol): 82 % of control
T/C (dose: 4.0 mg/kg/injection, schedule: Q04DX004 (sc), vehicle: saline + alcohol): 98 % of control
T/C (dose: 8.0 mg/kg/injection, schedule: Q04DX004 (sc), vehicle: saline + alcohol): 72 % of control

O=c1[nH]c(=O)n([C@H]2CCCO2)cc1F
T/C (dose: 46.4 mg/kg/injection, schedule: Q01DX010 (ip), vehicle: Klucel (hydroxypropylcellulose) (HPC)): 41 % of control
T/C (dose: 69.8 mg/kg/injection, schedule: Q01DX010 (ip), vehicle: Klucel (hydroxypropylcellulose) (HPC)): 68 % of control
T/C (dose: 104.6 mg/kg/injection, schedule: Q04DX004 (ip), vehicle: Klucel (hydroxypropylcellulose) (HPC)): 61 % of control
T/C (dose: 157.4 mg/kg/injection, schedule: Q04DX004 (ip), vehicle: Klucel (hydroxypropylcellulose) (HPC)): 40 % of control
T/C (dose: 157.8 mg/kg/injection, schedule: Q01DX010 (ip), vehicle: Klucel (hydroxypropylcellulose) (HPC)): 31 % of control
T/C (dose: 236.7 mg/kg/injection, schedule: Q04DX004 (ip), vehicle: Klucel (hydroxypropylcellulose) (HPC)): 53 % of control

COc1cc(C(C)(C)C)cc(OC)c1C(O)(c1c(OC)cc(C(C)(C)C)cc1OC)c1c(OC)cc(C(C)(C)C)cc1OC
T/C (dose: 50.0 mg/kg/injection, schedule: Q04DX004 (sc), vehicle: saline with Tween-80): 51 % of control
T/C (dose: 100.0 mg/kg/injection, schedule: Q04DX004 (sc), vehicle: saline with Tween-80): 79 % of control
T/C [1]: 63 % of control
T/C [2]: 68 % of control
T/C [3]: 102 % of control
T/C (dose: 1200.0 mg/kg/injection, schedule: Q04DX004 (sc), vehicle: saline with Tween-80): 80 % of control
T/C [4]: 61 % of control

O=C(O)C1(NO)CCCCC1
T/C (dose: 200.0 mg/kg/injection, schedule: Q04DX004 (sc), vehicle: Klucel (hydroxypropylcellulose) (HPC)): 168 % of control
T/C (dose: 400.0 mg/kg/injection, schedule: Q04DX004 (sc), vehicle: Klucel (hydroxypropylcellulose) (HPC)): 122 % of control
T/C (dose: 1600.0 mg/kg/injection, schedule: Q04DX004 (sc), vehicle: Klucel (hydroxypropylcellulose) (HPC)): 92 % of control

Nc1ccc(Cn2ccc3c4c(N)nc(N)nc4ccc32)cc1
T/C (dose: 18.75 mg/kg/injection, schedule: Q04DX004 (sc), vehicle: saline with Tween-80): 60 % of control
T/C (dose: 37.5 mg/kg/injection, schedule: Q04DX004 (sc), vehicle: saline with Tween-80): 58 % of control

COc1cc2cc(c1Cl)N(C)C(=O)C[C@H](OC(=O)[C@H](C)N(C)C(C)=O)[C@]1(C)O[C@H]1[C@H](C)[C@@H]1C[C@@](O)(NC(=O)O1)[C@H](OC)C=C/C=C(\C)C2
T/C (dose: 25.0 micrograms/kg/injection, schedule: Q01DX010 (sc), vehicle: Klucel (hydroxypropylcellulose) (HPC)): 315 % of control
T/C (dose: 50.0 micrograms/kg/injection, schedule: Q01DX010 (sc), vehicle: Klucel (hydroxypropylcellulose) (HPC)): 118 % of control and 310 % of control

O=S(CCCl)CCCl
T/C [5]: 98 % of control
T/C [6]: 64 % of control

CC[C@@]1(O)C(=O)OCc2c1cc1n(c2=O)Cc2cc3cc(O)ccc3nc2-1
T/C (dose: 8.0 mg/kg/injection, schedule: Q04DX004 (sc), vehicle: saline): 2 % of control
T/C (dose: 16.0 mg/kg/injection, schedule: Q04DX004 (sc), vehicle: saline): -74 % of control
T/C (dose: 32.0 mg/kg/injection, schedule: Q04DX004 (sc), vehicle: saline): -92 % of control

CCCC(=O)O.CCCC(=O)O.CCCC(=O)O.CCCC(=O)O.[Rh].[Rh]
T/C (dose: 4.0 mg/kg/injection, schedule: Q04DX004 (sc), vehicle: suspension in saline): 99 % of control
T/C (dose: 8.0 mg/kg/injection, schedule: Q04DX004 (sc), vehicle: suspension in saline): 118 % of control

CC(=O)OC(C)C1C2=C(C(=O)CC1(C)O)C(=O)c1c(ccc(-c3ccc4c(c3O)C(=O)C3=C(C4=O)C(C(C)OC(C)=O)C(C)(O)CC3=O)c1O)C2=O (stereo not drawn)
T/C (dose: 0.94 mg/kg/injection, schedule: Q04DX004 (ip), vehicle: saline with Tween-80): 94 % of control
T/C (dose: 1.9 mg/kg/injection, schedule: Q04DX004 (ip), vehicle: saline with Tween-80): 92 % of control
T/C (dose: 3.75 mg/kg/injection, schedule: Q04DX004 (ip), vehicle: saline with Tween-80): 88 % of control
T/C (dose: 7.5 mg/kg/injection, schedule: Q04DX004 (ip), vehicle: saline with Tween-80): 101 % of control
T/C (dose: 30.0 mg/kg/injection, schedule: Q04DX004 (ip), vehicle: saline with Tween-80): 162 % of control

— PubChem BioAssay AID208 (DTP/NCI, 2004)
